Molecules are shown by their SMILES.

Assay [1] concerns the target Tyrosine-protein kinase HCK (Homo sapiens, UniProt P08631). The assay can be described thus: Inhibition of Hck (unknown origin).
Assay [2] concerns the target Tyrosine-protein kinase ABL1 (Homo sapiens, UniProt P00519). The assay is described as follows: Inhibition of c-Abl (unknown origin).
For assay [3], the target named is Proto-oncogene tyrosine-protein kinase Src (Homo sapiens, UniProt P12931, C277S/C483S). The assay can be described thus: Inhibition of c-Src C277S, C483S, […] mutant (unknown origin).

For the molecule `C=CC(=O)N1CCCC1c1ccco1` (stereo not drawn), the Ki in assay [1] and in assay [2] was more than 1.25 mM throughout.

Take `O=C(CCS)Nc1cccc(Nc2nccc(Nc3cc(C4CC4)[nH]n3)n2)c1`: in assay [3], the affinity corresponds to a Ki of 200 nM.

The values above are taken from ChEMBL document CHEMBL3616418, “Discovery of Bivalent Kinase Inhibitors via Enzyme-Templated Fragment Elaboration” (ACS Med Chem Lett, 2015).
